# US20060292243A1, “Arsenic compounds for the treatment of the arsenic-sensitive blast-cell related diseases” (priority 2005, published 2006)
# Entries after “also recorded” stand apart in the source; their conditions may differ.
# What was measured:
# NZB/NZW mice = experiment: Severe glomerulonephritis (proteinuria by urine dipstick) in SLE model mice; format: in vivo; details: for Mice with severe glomerulonephritis (%): proteinuria more than 1 g/L (2+)
# Protocol: In vivo studies on the activity of arsenic compound were carried out by using an experimental animal model of human Systemic Lupus Erythematosus. NZB/NZW denotes the mouse strain that spontaneously develops an autoimmune syndrome having notable similarities to human Systemic Lupus Erythematosus. Autoimmune disease in NZB/NZW mice is characterized by antinuclear antibodies (IgG) production about 4 months of age, and glomerulonephritis with proteinuria is developed when at 9 months of age, and that is the major cause of death (uremia).
# At 24 weeks of age, mice (3 groups) were treated 3 times per week with PBS (Group I as positive control), 2.5 mg/kg of As2O3 (Group II), or 5 mg/kg of As2O3 (Group III) administered intraperitoneally. The treatment was stopped at 28 weeks of age. Mice were observed daily for clinical signs of disease and for mortality and were bled every 4 weeks for determination of anti-DNA antibody production.
# Urine protein levels were determined by colorimetric analysis using dipsticks (Multistix®, Bayer). Severe glomerulonephritis was defined as proteinuria more than 1 g/L (2+) by urine dipstick.
# Fibroblasts = experiment: DAPI staining of apoptotic bodies in fibroblasts; format: cell-based, human; details: 24 hours
# Protocol: Fibroblasts were treated with different concentrations of ATO for 24 hours, cells were fixed and the apoptotic bodies were detected by DAPI staining.
# BALB/c mice = experiment: Airway responsiveness to methacholine (PenH, pulmonary function test), OVA-immunized mice; format: in vivo
# Protocol: BALB/c mice (female, 6-8 weeks) were immunized with ovalbumin (OVA) at day 0, 14, 21 and 28. 38 days later, animals were injected with arsenic trioxide (ATO) i.p. for 7 days and antigen challenges with OVA were performed at day 42, 43, 44. At day 45, the airway enhanced pause (PenH) values were measured. 48 hours after the last antigen challenges, the mice were sacrificed, the trachea cannulated, and bronchoalveolar lavage (BAL) was performed by four repeated lavages with balanced salt solution (HBSS) injected into the lungs via the trachea. Total cell counts were performed with a hemocytometer after staining with trypan blue, and then cytospins were prepared, and a differential count of 300 cells per slide was performed. To obtain the absolute number of each leukocyte subtype in the lavage, the percentage of each cell type was multiplied by the total number of cells that were recovered from the bronchoalveolar lavage fluid (BALF). Eotaxin in the BALF was measured via ELISA. Four groups of mice were treated as Table 3.1.
# Group A mice were challenged by PBS only and then treated by PBS, too. Group B mice were immunized by ovalbumin and then treated by PBS only. Group C mice were immunized by ovalbumin and then treated by arsenic trioxide in a dosage of 2.5 mg per kg for mice. Group D mice were challenged by ovalbumin as group B and C and then treated by arsenic trioxide in a dosage of 5 mg/kg.
# The mice were challenged with methacholine (Mch.) in an increasing concentration and the airway constriction of the mice was measured by using pulmonary function test, whereafter the data of Table 3.5 was obtained. […] The result is also consistent with the results of eotaxin and eosinophil in BALF.
substance,measurement,setting,value
arsenic trioxide,onset of severe proteinuria in comparison with untreated animals,NZB/NZW mice; 2.5 mg/kg ATO and 5 mg/kg ATO,marked delay in the onset of severe proteinuria
same,Mice with severe glomerulonephritis (%),"NZB/NZW mice; 2.5 mg/kg, 37 weeks",16.67%
same,Mice with severe glomerulonephritis (%),"NZB/NZW mice; 2.5 mg/kg, 40 weeks",40%
same,Mice with severe glomerulonephritis (%),"NZB/NZW mice; 5 mg/kg, 37 weeks",25%
same,Mice with severe glomerulonephritis (%),"NZB/NZW mice; 5 mg/kg, 40 weeks",25%
same,apoptotic bodies by DAPI staining,Fibroblasts; 1 μM,no obvious apoptosis
same,apoptotic bodies by DAPI staining,Fibroblasts; 2.5 μM,no obvious apoptosis
same,apoptotic bodies by DAPI staining,Fibroblasts; 5 μM,obvious apoptotic bodies present
same,apoptotic bodies by DAPI staining,Fibroblasts; 10 μM,both apoptosis and necrosis
same,effect on airway hyper-reactivity / responsiveness to methacholine,"BALB/c mice; BALB/c mice, especially 2.5 mg/kg",does decrease the airway responsiveness; also recorded: successfully blocked
same,airway constriction by pulmonary function test (PenH),"BALB/c mice; Group C: ATO 2.5 mg/kg, Mch 6.25 mg/ml, mean ± SD",3.62 ± 0.47
same,airway constriction by pulmonary function test (PenH),"BALB/c mice; Group C: ATO 2.5 mg/kg, Mch 12.5 mg/ml, mean ± SD",7.83 ± 1.13
same,airway constriction by pulmonary function test (PenH),"BALB/c mice; Group C: ATO 2.5 mg/kg, Mch 25 mg/ml, mean ± SD, p<0.05 vs Group B",10.15 ± 0.84
same,airway constriction by pulmonary function test (PenH),"BALB/c mice; Group C: ATO 2.5 mg/kg, Mch 50 mg/ml, mean, p<0.05 vs Group B",9.83
same,airway constriction by pulmonary function test (PenH),"BALB/c mice; Group D: ATO 5 mg/kg, Mch 6.25 mg/ml, mean ± SD",2.55 ± 0.35
same,airway constriction by pulmonary function test (PenH),"BALB/c mice; Group D: ATO 5 mg/kg, Mch 12.5 mg/ml, mean ± SD",8.82 ± 0.88
same,airway constriction by pulmonary function test (PenH),"BALB/c mice; Group D: ATO 5 mg/kg, Mch 25 mg/ml, mean ± SD",11.57 ± 1.52
same,airway constriction by pulmonary function test (PenH),"BALB/c mice; Group D: ATO 5 mg/kg, Mch 50 mg/ml, mean",12.51
